Data reported in patent US12569460B2, “Application of thyroid hormones and thyroid hormone analogues to preparation of drugs for treating sickle-cell disease” (RUIJIN HOSPITAL, SHANGHAI JIAO TONG UNIVERSITY SCHOOL OF …, priority 2020, dated 2026).

Assays:
[1] = system: ζ-globin gene (hbae5); test: Whole-mount mRNA in situ hybridization (WISH) of ζ-globin gene (hbae5) in zebrafish embryos; format: in vivo; details: 5 μmol/L, 24 hours
Method: (§1) K562 cells were cultured in RPMI 1640 medium supplemented with 10% (v/v) fetal bovine serum; Hemin was dissolved into 0.2 mol/L NaOH solution, and the working concentration for treating K562 cells is 20 μmol/L; Triac, T3 and T4 were dissolved into dimethyl sulfoxide (DMSO), and the working concentration for treating K562 cells and zebrafish embryos is 20 μmol/L and 5 μmol/L, respectively.
After treatment with Triac, T3 and T4 for 24 hours, respectively, zebrafish embryos were fixed by 4% paraformaldehyde. The expression of ζ-globin gene (hbae5) was detected by Whole-mount mRNA in situ hybridization (WISH).

[2] = system: ζ-globin gene (hbae5); test: qPCR of ζ-globin gene (hbae5) expression in zebrafish embryos; format: in vivo; details: 5 μmol/L, 24 hours
Method: as §1
After treatment with Triac, T3 and T4 for 24 hours, respectively, zebrafish embryos were collected. TRIzol reagent (Invitrogen) was used to extract total RNA, then a reverse transcription kit (ReverTra Ace, TOYOBO) was used to synthesize cDNA, and finally, a SYBRGreen Realtime PCR Master Mix (TOYOBO) reagent was used to perform quantitative PCR.
(§2) The quantitative PCR reaction system is:
(§3) The quantitative PCR reaction conditions are: • hot start: 95° C., 10 minutes; • denaturation: 95° C., 10 seconds; and • annealing/extension: 60° C., 30 seconds. • 40 circles. Analysis of a […]

[3] = system: ζ-globin gene (HBZ); test: qPCR of ζ-globin gene (HBZ) expression in hemin-treated K562 cells; format: cell-based, human; details: hemin plus Triac 20 μmol/L, 72 hours
Method: as §1
K562 cells were treated with hemin or hemin plus Triac for 72 hours, respectively, centrifugation was performed at 2000 rpm for 5 minutes to collect cells, a TRIzol reagent (Invitrogen) was used to extract total RNA, then a reverse transcription kit (ReverTra Ace, TOYOBO) was used to synthesize cDNA, and finally, a SYBR Green Realtime PCR Master Mix (TOYOBO) reagent was used to perform quantitative PCR.
as §2, §3

| SMILES | expression of ζ-globin gene (hbae5) by WISH [1] | expression of ζ-globin gene (hbae5) up-regulated (qPCR) [2] [folds] | expression of ζ-globin gene (HBZ) up-regulated (qPCR) [3] [folds] |
| --- | --- | --- | --- |
| N[C@@H](Cc1cc(I)c(Oc2cc(I)c(O)c(I)c2)c(I)c1)C(=O)O [T4, 3,3′,5,5′-tetraiodothyronine] | significantly induce the expression | 41 |  |
| O=C(O)Cc1cc(I)c(Oc2ccc(O)c(I)c2)c(I)c1 [Triac, 2-[4-(4-Hydroxy-3-iodophenoxy)-3,5-diiodophenyl] acetic acid] | significantly induce the expression | 76 | 50.9 |
| N[C@@H](Cc1cc(I)c(Oc2ccc(O)c(I)c2)c(I)c1)C(=O)O [T3, 3,3′,5-Triiodo-L-thyronine] | significantly induce the expression | 31 |  |
